# Results reported in patent US20230128114A1, “METHODS AND COMPOSITIONS FOR TREATING OR PREVENTING AN INFLAMMATORY CONDITION” (priority 2020, published 2023).
# Where two headings read alike, the source gives them in different places.
# How the values were obtained:
# LPS-induced sepsis [1] = assay: LPS-induced sepsis in mice, intraperitoneal administration: serum immune marker panel (Luminex/ELISA); format: in vivo, C57BL/6 mice
# Method: (§1) Male C57BL/6 mice weighing 10-20 g were used. Vehicle and active agents (i.e., CBD and hydroxychloroquine) alone or in combination were administered intraperitoneally (IP) (Table 4) or orally (Table 5) at 1 hour before LPS (100 μg/100 μL/mouse) injected intravenously (IV). At 2 hours after LPS injection, blood was collected from all mice by cardiac puncture, sera processed and assayed for biomarkers using either the Th17-plex for IL-1β, IL-2, IL-10, IL-12 (p70), IFN-γ and TNF-α by Luminex, plus IL-6 and D-dimer by ELISA, or the 23-plex for IL-1α, IL-1β, IL-2, IL-3, IL-4, IL-5, IL-6, IL-9, IL-10, IL-12(p40), IL-12(p70), IL-13, IL-17A, Eotaxin, G-CSF, GM-CSF, IFN-γ, KC, MCP-1(MCAF), MIP-1α, MIP-1β, RANTES, and TNF-α by Luminex, plus IL-6 by ELISA. ANOVA followed by Dunnett's test was applied for comparison between vehicle and treatment groups. p<0.05 is considered significant.
# LPS-induced sepsis [2] = assay: LPS-induced sepsis in mice, oral administration: serum 23-plex immune marker panel; format: in vivo, C57BL/6 mice
# Method: as §1
# [3] = test system: LPS-induced production of inflammatory cytokines; assay: LPS-induced sepsis in mice: synergy analysis (relative inhibition of cytokine release, Excess over Bliss); format: in vivo, C57BL/6 mice
# Method: as §1
# For synergy analysis, data were baseline subtracted using the cytokine levels of sham treated mice (i.e., no LPS injection), before normalising the values for each cytokine relative to maximum values across the groups. The normalised values were used to calculate the relative inhibition where a value of 1 represents complete inhibition and a value of 0 represents no inhibition. Synergy was calculated using the statistical methods described elsewhere herein.
# (§2) Drug synergy was determined using the Bliss Independence method where the predicted effect of the drug combination is calculated using the equation: […]
# [4] = test system: LPS-induced pulmonary inflammation; assay: LPS-induced pulmonary inflammation: BALF white blood cell count; format: in vivo, C57BL/B6 mice; details: CBD 10 mg/kg, HCQ 2.5 mg/kg, alone or combined
# Method: Male C57BL/B6 mice weighing 10-20 g were used. Vehicle and active agents (i.e., CBD and hydroxychloroquine) alone or in combination were administered intraperitoneally (IP) at 1 hour before LPS (˜80 mg/kg) was administered intratracheally. 24 hours after LPS injection, mice were anaesthetized with pentoparbital and 0.5 mL of PBS was administered twice through a tracheal cannula after which approximately 0.6 mL of broncheoalveolar lavage fluid (BALF) was obtained. The BALF was assayed for IL-1β, TNF-α, MCP-1(MCAF) and CXCL-1 by Luminex. ANOVA followed by Dunnett's test was applied for comparison between vehicle and treatment groups. p<0.05 was considered significant.
# BALF collected from mice were also analysed for white blood cell (WBC) count using an automatic haematology analyser. Cell counts were normalised using sham treated mice, and analysed relative to the highest values across the groups (Table 27).
# [5] = test system: human peripheral blood mononuclear cells (PBMCs) stimulated with bacterial lipopolysaccharide (LPS); assay: Cytokine release from LPS-stimulated human PBMCs (checkerboard, Luminex), Bliss synergy; format: cell-based; details: PBMC
# Method: The anti-inflammatory activity the combination of CBD and hydroxychloroquine was assessed by determining cytokine release from human peripheral blood mononuclear cells (PBMCs) stimulated with bacterial lipopolysaccharide (LPS) using a Luminex based assay. A 96-well microtitre plate-based checkerboard assay with seven concentrations (including the no drug control) of CBD and hydroxychloroquine were assessed in combination was used to determine the drug-drug interaction. Briefly, frozen PMBCs from two independent donors were thawed, diluted in culture medium, seeded into 96-well microtitre plates and incubated at 37° C., 5% CO2 for 1 hour prior to the addition of test compounds. After the addition of the test compounds the cells were returned to the incubator for 1 hour, after which LPS was added to the wells. Plates were incubated at 37° C., 5% CO2 for 24 hours. After 24 hours, cell culture supernatants were removed and analysed for cytokine levels using Luminex methodology according to manufacturers' instructions. All values had the vehicle background subtracted prior to further analysis. Three plates were set up in parallel using the PBMCs from the same donor. Inhibition of cytokine release was determined relative to the no treatment control (i.e., that was stimulated with LPS) and averaged across the three replicates. A cytotoxicity assay using AlmarBlue with the identical plate set up was performed in parallel.
# as §2
# Synergy values for each combination of drug concentrations were calculated using the Excess Over Bliss method (the difference between the observed and predicted inhibition) described by, e.g., Liu et al. (2018, Statistics in Biopharmaceutical Research, 10: 112-122, where a value greater than 0 is indicative of synergy and the higher the value the stronger the synergy.
# [6] = test system: LPS-induced pulmonary inflammation; assay: LPS-induced pulmonary inflammation: BALF cytokines, synergy analysis; format: in vivo, C57BL/B6 mice; details: CBD 1 mg/kg, HCQ 25 mg/kg, alone or combined; observed
# [7] = hydroxychloroquine 1, 5, 10, 25, 50 and 100 mg/kg IP
# [8] = hydroxychloroquine 50 and 100 mg/kg IP
# [9] = hydroxychloroquine 20 mg/kg PO alone
# [10] = CBD 10 mg/kg, HCQ 100 mg/kg, alone or combined, observed
compound,measurement,setting,value
CCN(CCO)CCCC(C)Nc1ccnc2cc(Cl)ccc12 (centres unmarked) [HCQ],D-dimer level vs vehicle group,LPS-induced sepsis [1]; [7],dose-dependent increase
same,IL-10 level vs vehicle group,LPS-induced sepsis [1]; [7],significant (p<0.05) increase
same,IFN-γ level vs vehicle group,LPS-induced sepsis [1]; [8],moderate decrease
same,IL-1β level vs vehicle group,LPS-induced sepsis [1]; [8],significant (p<0.05) decreases
same,IL-2 level vs vehicle group,LPS-induced sepsis [1]; [8],significant (p<0.05) decreases
same,IL-12(p70) level vs vehicle group,LPS-induced sepsis [1]; [8],moderate decrease
same,TNF-α level vs vehicle group,LPS-induced sepsis [1]; [8],moderate decrease
same,Effect on biomarker levels,LPS-induced sepsis [2]; hydroxychloroquine 2 mg/kg PO alone,little or no effect
same,LPS-induced IL-1α release vs vehicle group,LPS-induced sepsis [2]; [9],moderate suppression
same,LPS-induced IL-1β release vs vehicle group,LPS-induced sepsis [2]; [9],moderate suppression
same,LPS-induced IL-2 release vs vehicle group,LPS-induced sepsis [2]; [9],moderate suppression
same,LPS-induced IL-4 release vs vehicle group,LPS-induced sepsis [2]; [9],moderate suppression
same,LPS-induced IL-5 release vs vehicle group,LPS-induced sepsis [2]; [9],moderate suppression
same,LPS-induced IL-9 release vs vehicle group,LPS-induced sepsis [2]; [9],moderate suppression
same,"IFN-γ, relative inhibition of cytokine release",[3]; [10],0.74
same,"IL-1β, relative inhibition of cytokine release",[3]; [10],0.01
same,"IL-6, relative inhibition of cytokine release",[3]; [10],0.22
same,"IL-12(p70), relative inhibition of cytokine release",[3]; [10],0.72
same,"TNF-α, relative inhibition of cytokine release",[3]; [10],0.55
same,"IL-6, relative inhibition of cytokine release","[3]; CBD 25 mg/kg, HCQ 100 mg/kg, alone or combined, observed",0.22
same,Relative inhibition of IFN-γ release in vivo,[3]; HCQ 25 mg/kg alone,0.57
same,Relative inhibition of IL-12(p70) release in vivo,[3]; HCQ 25 mg/kg alone,0.56
same,Relative inhibition of TNF-α release in vivo,[3]; HCQ 25 mg/kg alone,0.33
same,Relative inhibition of IL-6 release in vivo,[3]; HCQ 25 mg/kg alone (Table 21),0.17
same,Relative inhibition of IL-6 release in vivo,[3]; HCQ 25 mg/kg alone (Table 23),0.17
same,Relative reduction in white blood cell counts: Neutrophil,[4],0.10
same,Relative reduction in white blood cell counts: WBC,[4],0.11
same,inhibition at 0.63 µg/mL,"[5]; Donor 1, HCQ 0.63 μg/mL alone, read-out: FIE (fractional inhibitory effect), IL-1α release",3%
same,inhibition at 0.63 µg/mL,"[5]; Donor 1, HCQ 0.63 μg/mL alone, read-out: FIE (fractional inhibitory effect), IL-1β release",8%
same,inhibition at 0.63 µg/mL,"[5]; Donor 1, HCQ 0.63 μg/mL alone, read-out: FIE (fractional inhibitory effect), IL-6 release",12%
same,inhibition at 0.63 µg/mL,"[5]; Donor 1, HCQ 0.63 μg/mL alone, read-out: FIE (fractional inhibitory effect), TNF-α release",0%
same,inhibition at 1.25 µg/mL,"[5]; Donor 1, HCQ 1.25 μg/mL alone, read-out: FIE (fractional inhibitory effect), IL-1α release",1%
same,inhibition at 1.25 µg/mL,"[5]; Donor 1, HCQ 1.25 μg/mL alone, read-out: FIE (fractional inhibitory effect), IL-1β release",7%
same,inhibition at 1.25 µg/mL,"[5]; Donor 1, HCQ 1.25 μg/mL alone, read-out: FIE (fractional inhibitory effect), IL-6 release",0%
same,inhibition at 1.25 µg/mL,"[5]; Donor 1, HCQ 1.25 μg/mL alone, read-out: FIE (fractional inhibitory effect), TNF-α release",8%
same,inhibition at 2.5 µg/mL,"[5]; Donor 1, HCQ 2.50 μg/mL alone, read-out: FIE (fractional inhibitory effect), IL-1α release",12%
same,inhibition at 2.5 µg/mL,"[5]; Donor 1, HCQ 2.50 μg/mL alone, read-out: FIE (fractional inhibitory effect), IL-1β release",8%
same,inhibition at 2.5 µg/mL,"[5]; Donor 1, HCQ 2.50 μg/mL alone, read-out: FIE (fractional inhibitory effect), IL-6 release",10%
same,inhibition at 2.5 µg/mL,"[5]; Donor 1, HCQ 2.50 μg/mL alone, read-out: FIE (fractional inhibitory effect), MIP-1α release",0%
same,inhibition at 2.5 µg/mL,"[5]; Donor 1, HCQ 2.50 μg/mL alone, read-out: FIE (fractional inhibitory effect), TNF-α release",5%
same,inhibition at 5 µg/mL,"[5]; Donor 1, HCQ 5.00 μg/mL alone, read-out: FIE (fractional inhibitory effect), IL-1α release",24%
same,inhibition at 5 µg/mL,"[5]; Donor 1, HCQ 5.00 μg/mL alone, read-out: FIE (fractional inhibitory effect), IL-1β release",17%
same,inhibition at 5 µg/mL,"[5]; Donor 1, HCQ 5.00 μg/mL alone, read-out: FIE (fractional inhibitory effect), IL-6 release",8%
same,inhibition at 5 µg/mL,"[5]; Donor 1, HCQ 5.00 μg/mL alone, read-out: FIE (fractional inhibitory effect), TNF-α release",2%
same,inhibition at 10 µg/mL,"[5]; Donor 1, HCQ 10.00 μg/mL alone, read-out: FIE (fractional inhibitory effect), IL-1α release",50%
same,inhibition at 10 µg/mL,"[5]; Donor 1, HCQ 10.00 μg/mL alone, read-out: FIE (fractional inhibitory effect), IL-1β release",68%
same,inhibition at 10 µg/mL,"[5]; Donor 1, HCQ 10.00 μg/mL alone, read-out: FIE (fractional inhibitory effect), IL-6 release",0%
same,inhibition at 10 µg/mL,"[5]; Donor 1, HCQ 10.00 μg/mL alone, read-out: FIE (fractional inhibitory effect), TNF-α release",4%
same,inhibition at 20 µg/mL,"[5]; Donor 1, HCQ 20.00 μg/mL alone, read-out: FIE (fractional inhibitory effect), IL-1α release",54%
same,inhibition at 20 µg/mL,"[5]; Donor 1, HCQ 20.00 μg/mL alone, read-out: FIE (fractional inhibitory effect), IL-1β release",81%
same,inhibition at 20 µg/mL,"[5]; Donor 1, HCQ 20.00 μg/mL alone, read-out: FIE (fractional inhibitory effect), IL-6 release",12%
same,inhibition at 20 µg/mL,"[5]; Donor 1, HCQ 20.00 μg/mL alone, read-out: FIE (fractional inhibitory effect), MIP-1α release",0%
same,inhibition at 20 µg/mL,"[5]; Donor 1, HCQ 20.00 μg/mL alone, read-out: FIE (fractional inhibitory effect), TNF-α release",30%
same,inhibition at 0.63 µg/mL,"[5]; Donor 2, HCQ 0.63 μg/mL alone, read-out: FIE (fractional inhibitory effect), IL-1α release",7%
same,inhibition at 0.63 µg/mL,"[5]; Donor 2, HCQ 0.63 μg/mL alone, read-out: FIE (fractional inhibitory effect), IL-1β release",6%
same,inhibition at 1.25 µg/mL,"[5]; Donor 2, HCQ 1.25 μg/mL alone, read-out: FIE (fractional inhibitory effect), IL-1α release",11%
same,inhibition at 2.5 µg/mL,"[5]; Donor 2, HCQ 2.50 μg/mL alone, read-out: FIE (fractional inhibitory effect), IL-1α release",19%
same,inhibition at 2.5 µg/mL,"[5]; Donor 2, HCQ 2.50 μg/mL alone, read-out: FIE (fractional inhibitory effect), IL-1β release",7%
same,inhibition at 5 µg/mL,"[5]; Donor 2, HCQ 5.00 μg/mL alone, read-out: FIE (fractional inhibitory effect), IL-1α release",49%
same,inhibition at 5 µg/mL,"[5]; Donor 2, HCQ 5.00 μg/mL alone, read-out: FIE (fractional inhibitory effect), TNF-α release",2%
same,inhibition at 10 µg/mL,"[5]; Donor 2, HCQ 10.00 μg/mL alone, read-out: FIE (fractional inhibitory effect), IL-1α release",68%
same,inhibition at 10 µg/mL,"[5]; Donor 2, HCQ 10.00 μg/mL alone, read-out: FIE (fractional inhibitory effect), IL-6 release",11%
same,inhibition at 10 µg/mL,"[5]; Donor 2, HCQ 10.00 μg/mL alone, read-out: FIE (fractional inhibitory effect), MIP-1α release",0%
same,inhibition at 10 µg/mL,"[5]; Donor 2, HCQ 10.00 μg/mL alone, read-out: FIE (fractional inhibitory effect), TNF-α release",18%
same,inhibition at 20 µg/mL,"[5]; Donor 2, HCQ 20.00 μg/mL alone, read-out: FIE (fractional inhibitory effect), IL-1α release",63%
same,inhibition at 20 µg/mL,"[5]; Donor 2, HCQ 20.00 μg/mL alone, read-out: FIE (fractional inhibitory effect), IL-6 release",47%
same,inhibition at 20 µg/mL,"[5]; Donor 2, HCQ 20.00 μg/mL alone, read-out: FIE (fractional inhibitory effect), MIP-1α release",0%
same,"IL-6, relative inhibition of cytokine release (BALF)",[6],0.08
